Assay results as given in PubChem BioAssay (NCI).
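Protocol summary: plate cells (96-well), add compound at 5 concentrations, incubate 48 h, interpolate endpoints linearly. TGI: concentration producing complete growth inhibition.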

What was measured:
Test in all cases: growth of human tumour cells (NCI), 48 h
U251 CNS = tested on: U251 CNS
HT29 colon = tested on: HT29 colon
SNB-75 CNS = tested on: SNB-75 CNS
NCI-H23 lung = tested on: NCI-H23 lung
A549 NSCLC = tested on: A549 NSCLC
IGROV1 ovarian = tested on: IGROV1 ovarian
CAKI-1 renal = tested on: CAKI-1 renal
HL-60(TB) leukemia = tested on: HL-60(TB) leukemia
OVCAR-4 ovarian = tested on: OVCAR-4 ovarian
T-47D breast = tested on: T-47D breast
NCI/ADR-RES ovarian = tested on: NCI/ADR-RES ovarian
MALME-3M melanoma = tested on: MALME-3M melanoma
HCT-15 colon = tested on: HCT-15 colon
DU-145 prostate = tested on: DU-145 prostate
SK-OV-3 ovarian = tested on: SK-OV-3 ovarian
UACC-62 melanoma = tested on: UACC-62 melanoma
K-562 leukemia = tested on: K-562 leukemia
NCI-H460 lung = tested on: NCI-H460 lung
HCT-116 colon = tested on: HCT-116 colon
HOP-62 NSCLC = tested on: HOP-62 NSCLC
MDA-N = tested on: MDA-N
EKVX NSCLC = tested on: EKVX NSCLC
SF-268 CNS = tested on: SF-268 CNS
ACHN renal = tested on: ACHN renal
HS 578T breast = tested on: HS 578T breast
SF-539 CNS = tested on: SF-539 CNS
SK-MEL-5 melanoma = tested on: SK-MEL-5 melanoma
OVCAR-5 ovarian = tested on: OVCAR-5 ovarian
MCF7 breast = tested on: MCF7 breast
SK-MEL-28 melanoma = tested on: SK-MEL-28 melanoma
MOLT-4 leukemia = tested on: MOLT-4 leukemia
BT-549 breast = tested on: BT-549 breast
M14 melanoma = tested on: M14 melanoma
SN12C renal = tested on: SN12C renal
SNB-19 CNS = tested on: SNB-19 CNS
NCI-H522 lung = tested on: NCI-H522 lung
KM12 colon = tested on: KM12 colon
CCRF-CEM leukemia = tested on: CCRF-CEM leukemia
RPMI-8226 leukemia = tested on: RPMI-8226 leukemia
OVCAR-3 ovarian = tested on: OVCAR-3 ovarian
SR leukemia = tested on: SR leukemia
TK-10 renal = tested on: TK-10 renal
MDA-MB-231 breast = tested on: MDA-MB-231 breast
OVCAR-8 ovarian = tested on: OVCAR-8 ovarian
HOP-92 NSCLC = tested on: HOP-92 NSCLC
COLO 205 colon = tested on: COLO 205 colon
SK-MEL-2 melanoma = tested on: SK-MEL-2 melanoma
UO-31 renal = tested on: UO-31 renal
MDA-MB-435 = tested on: MDA-MB-435
HCC-2998 colon = tested on: HCC-2998 colon
786-0 renal = tested on: 786-0 renal
NCI-H226 lung = tested on: NCI-H226 lung
A498 renal = tested on: A498 renal
RXF 393 renal = tested on: RXF 393 renal
PC-3 prostate = tested on: PC-3 prostate
LOX IMVI melanoma = tested on: LOX IMVI melanoma
SF-295 CNS = tested on: SF-295 CNS
SW-620 colon = tested on: SW-620 colon

CCOC(=O)c1ccc(Nc2nc3ccccc3nc2C(=O)OCC)cc1
TGI (U251 CNS): > 100 µM | TGI (HT29 colon): > 100 µM | TGI (SNB-75 CNS): > 100 µM | TGI (NCI-H23 lung): > 100 µM | TGI (A549 NSCLC): > 100 µM | TGI (IGROV1 ovarian): > 100 µM | TGI (CAKI-1 renal): > 100 µM | TGI (HL-60(TB) leukemia): > 100 µM | TGI (OVCAR-4 ovarian): > 100 µM | TGI (T-47D breast): > 100 µM | TGI (NCI/ADR-RES ovarian): > 100 µM | TGI (MALME-3M melanoma): > 100 µM | TGI (HCT-15 colon): > 100 µM | TGI (DU-145 prostate): > 100 µM | TGI (SK-OV-3 ovarian): > 100 µM | TGI (UACC-62 melanoma): > 100 µM | TGI (K-562 leukemia): > 100 µM | TGI (NCI-H460 lung): > 100 µM | TGI (HCT-116 colon): > 100 µM | TGI (HOP-62 NSCLC): > 100 µM | TGI (MDA-N): > 100 µM | TGI (EKVX NSCLC): > 100 µM | TGI (SF-268 CNS): > 100 µM | TGI (ACHN renal): > 100 µM | TGI (HS 578T breast): > 100 µM | TGI (SF-539 CNS): > 100 µM | TGI (SK-MEL-5 melanoma): > 100 µM | TGI (OVCAR-5 ovarian): > 100 µM | TGI (MCF7 breast): > 100 µM | TGI (SK-MEL-28 melanoma): > 100 µM | TGI (MOLT-4 leukemia): > 100 µM | TGI (BT-549 breast): > 100 µM | TGI (M14 melanoma): > 100 µM | TGI (SN12C renal): > 100 µM | TGI (SNB-19 CNS): > 100 µM | TGI (NCI-H522 lung): > 100 µM | TGI (KM12 colon): > 100 µM | TGI (CCRF-CEM leukemia): > 100 µM | TGI (RPMI-8226 leukemia): > 100 µM | TGI (OVCAR-3 ovarian): > 100 µM | TGI (SR leukemia): > 100 µM | TGI (TK-10 renal): > 100 µM | TGI (MDA-MB-231 breast): > 100 µM | TGI (OVCAR-8 ovarian): > 100 µM | TGI (HOP-92 NSCLC): > 100 µM | TGI (COLO 205 colon): > 100 µM | TGI (SK-MEL-2 melanoma): > 100 µM | TGI (UO-31 renal): > 100 µM | TGI (MDA-MB-435): > 100 µM | TGI (HCC-2998 colon): > 100 µM | TGI (786-0 renal): > 100 µM

COC(=O)Nc1nc2ccc(NC(=O)c3cccs3)cc2[nH]1
TGI (NCI-H226 lung): > 100 µM | TGI (U251 CNS): > 100 µM | TGI (HT29 colon): > 100 µM | TGI (SNB-75 CNS): 65 µM | TGI (A498 renal): 88.7 µM | TGI (NCI-H23 lung): > 100 µM | TGI (RXF 393 renal): 86.7 µM | TGI (A549 NSCLC): > 100 µM | TGI (IGROV1 ovarian): 14.4 µM | TGI (CAKI-1 renal): > 100 µM | TGI (HL-60(TB) leukemia): > 100 µM | TGI (OVCAR-4 ovarian): > 100 µM | TGI (T-47D breast): 88.1 µM | TGI (NCI/ADR-RES ovarian): 55.4 µM | TGI (MALME-3M melanoma): 99.5 µM | TGI (HCT-15 colon): > 100 µM | TGI (DU-145 prostate): > 100 µM | TGI (SK-OV-3 ovarian): > 100 µM | TGI (UACC-62 melanoma): > 100 µM | TGI (K-562 leukemia): > 100 µM | TGI (NCI-H460 lung): > 100 µM | TGI (HCT-116 colon): > 100 µM | TGI (HOP-62 NSCLC): > 100 µM | TGI (MDA-N): 36.7 µM | TGI (EKVX NSCLC): > 100 µM | TGI (SF-268 CNS): > 100 µM | TGI (ACHN renal): > 100 µM | TGI (HS 578T breast): 44.7 µM | TGI (SF-539 CNS): 60.2 µM | TGI (SK-MEL-5 melanoma): 82.5 µM | TGI (OVCAR-5 ovarian): > 100 µM | TGI (MCF7 breast): > 100 µM | TGI (SK-MEL-28 melanoma): > 100 µM | TGI (MOLT-4 leukemia): > 100 µM | TGI (BT-549 breast): > 100 µM | TGI (M14 melanoma): > 100 µM | TGI (SN12C renal): > 100 µM | TGI (SNB-19 CNS): > 100 µM | TGI (PC-3 prostate): > 100 µM | TGI (KM12 colon): > 100 µM | TGI (CCRF-CEM leukemia): > 100 µM | TGI (RPMI-8226 leukemia): 46.4 µM | TGI (LOX IMVI melanoma): > 100 µM | TGI (OVCAR-3 ovarian): 47.3 µM | TGI (TK-10 renal): > 100 µM | TGI (MDA-MB-231 breast): > 100 µM | TGI (OVCAR-8 ovarian): > 100 µM | TGI (HOP-92 NSCLC): 40.7 µM | TGI (COLO 205 colon): > 100 µM | TGI (SK-MEL-2 melanoma): > 100 µM | TGI (UO-31 renal): 36.2 µM | TGI (SF-295 CNS): > 100 µM | TGI (MDA-MB-435): 39.4 µM | TGI (SW-620 colon): > 100 µM | TGI (786-0 renal): > 100 µM
